Reference: the supplement of paper PMC6965134
± gives the standard deviation of the averaged measurements.

Test: TIMS collisional cross section (CCS, N2) of the lipid ion; higher = larger ion cross section
Conditions: ionization mode: positive, one isomer drawn

Structure (SMILES)	TIMS collisional cross section (sample type: Liver) [Å²]	TIMS collisional cross section (sample type: HeLa) [Å²]	TIMS collisional cross section (sample type: plasma) [Å²]
CCCCCCC/C=C\CCCCCCCC(=O)OC[C@@H](COC(=O)CCCCCCCCCCCCCCC)OC(=O)CCCCCCCCCCCCCCCC [TG 16:0_17:0_17:1] (ion (formula + adduct): [C53H100O6+NH4] 1+)	317.9		
CCCCCCCCCCCCCCCCCC(=O)OC[C@@H](COC(=O)CCCCCCCCCCCCCCC)OC(=O)CCCCCCCCCCCCCCCC [TG 16:0_17:0_18:0] (ion (formula + adduct): [C54H104O6+NH4] 1+)	323.6	323.3	323.4
CCCCCCCC/C=C\CCCCCCCC(=O)OC[C@@H](COC(=O)CCCCCCCCCCCCCCC)OC(=O)CCCCCCCCCCCCCCCC [TG 16:0_17:0_18:1] (ion (formula + adduct): [C54H102O6+NH4] 1+)	321.6	321.9	321.6
CCCCCCCCCCCCCCCCCCCC(=O)OC[C@@H](COC(=O)CCCCCCCCCCCCCCC)OC(=O)CCCCCCCCCCCCCCCC [TG 16:0_17:0_20:0] (ion (formula + adduct): [C56H108O6+NH4] 1+)		328.6	
CCCCCCCCCCCCCCCCCCCCCC(=O)OC[C@@H](COC(=O)CCCCCCCCCCCCCCC)OC(=O)CCCCCCCCCCCCCCCC [TG 16:0_17:0_22:0] (ion (formula + adduct): [C58H112O6+NH4] 1+)	335		334.9 ± 0.42
CCCCCCCC/C=C\CCCCCCCCCCCC(=O)OC[C@@H](COC(=O)CCCCCCCCCCCCCCC)OC(=O)CCCCCCCCCCCCCCCC [TG 16:0_17:0_22:1] (ion (formula + adduct): [C58H110O6+NH4] 1+)		332.9	
CCCCCCC/C=C\CCCCCCCC(=O)O[C@@H](COC(=O)CCCCCCC/C=C\CCCCCCCC)COC(=O)CCCCCCCCCCCCCCC [TG 16:0_17:1_18:1] (ion (formula + adduct): [C54H100O6+NH4] 1+)	319.35 ± 0.21	319.4	319.3
CCCCC/C=C\C/C=C\CCCCCCCC(=O)OC[C@@H](COC(=O)CCCCCCCCCCCCCCC)OC(=O)CCCCCCC/C=C\CCCCCCC [TG 16:0_17:1_18:2] (ion (formula + adduct): [C54H98O6+NH4] 1+)	316		317.8
CCCCC/C=C\C/C=C\C/C=C\C/C=C\CCCC(=O)OC[C@@H](COC(=O)CCCCCCCCCCCCCCC)OC(=O)CCCCCCC/C=C\CCCCCCC [TG 16:0_17:1_20:4] (ion (formula + adduct): [C56H98O6+NH4] 1+)		321.4	
CC/C=C\C/C=C\C/C=C\C/C=C\C/C=C\CCCCCC(=O)OC[C@@H](COC(=O)CCCCCCCCCCCCCCC)OC(=O)CCCCCCC/C=C\CCCCCCC [TG 16:0_17:1_22:5] (ion (formula + adduct): [C58H100O6+NH4] 1+)		325.4	
CC/C=C\C/C=C\C/C=C\C/C=C\C/C=C\C/C=C\CCC(=O)OC[C@@H](COC(=O)CCCCCCCCCCCCCCC)OC(=O)CCCCCCC/C=C\CCCCCCC [TG 16:0_17:1_22:6] (ion (formula + adduct): [C58H98O6+NH4] 1+)		324.8	
CCCCCCCCCCCCCCCCCC(=O)OC[C@@H](COC(=O)CCCCCCCCCCCCCCC)OC(=O)CCCCCCCCCCCCCCCCC [TG 16:0_18:0_18:0] (ion (formula + adduct): [C55H106O6+NH4] 1+)	326.7		326.7
CCCCCCCC/C=C\CCCCCCCC(=O)OC[C@@H](COC(=O)CCCCCCCCCCCCCCC)OC(=O)CCCCCCCCCCCCCCCCC [TG 16:0_18:0_18:1] (ion (formula + adduct): [C55H104O6+NH4] 1+)	324.5 ± 0.14	324.4	324.45 ± 0.35
CCCCCCCCCCCCCCCCCCC(=O)OC[C@@H](COC(=O)CCCCCCCCCCCCCCC)OC(=O)CCCCCCCCCCCCCCCCC [TG 16:0_18:0_19:0] (ion (formula + adduct): [C56H108O6+NH4] 1+)	329.3		329
CCCCCCCCCCCCCCCCCCCC(=O)OC[C@@H](COC(=O)CCCCCCCCCCCCCCC)OC(=O)CCCCCCCCCCCCCCCCC [TG 16:0_18:0_20:0] (ion (formula + adduct): [C57H110O6+NH4] 1+)		332.05 ± 0.21	332.5 ± 0.14
CCCCCCCC/C=C\CCCCCCCCCC(=O)OC[C@@H](COC(=O)CCCCCCCCCCCCCCC)OC(=O)CCCCCCCCCCCCCCCCC [TG 16:0_18:0_20:1] (ion (formula + adduct): [C57H108O6+NH4] 1+)		330.3	
CCCCCCCCCCCCCCCCCCCCCC(=O)OC[C@@H](COC(=O)CCCCCCCCCCCCCCC)OC(=O)CCCCCCCCCCCCCCCCC [TG 16:0_18:0_22:0] (ion (formula + adduct): [C59H114O6+NH4] 1+)	338.3	337.8	337.55 ± 0.21

Structure (SMILES)	TIMS collisional cross section (sample type: Liver) [Å²]	TIMS collisional cross section (sample type: HeLa) [Å²]	TIMS collisional cross section (sample type: plasma) [Å²]
CC/C=C\C/C=C\C/C=C\C/C=C\C/C=C\CCCCCC(=O)OC[C@@H](COC(=O)CCCCCCCCCCCCCCC)OC(=O)CCCCCCCCCCCCCCCCC [TG 16:0_18:0_22:5] (ion (formula + adduct): [C59H104O6+NH4] 1+)		330.6	
CCCCCCCC/C=C\CCCCCCCC(=O)OC[C@@H](COC(=O)CCCCCCCCCCCCCCC)OC(=O)CCCCCCC/C=C\CCCCCCCC [TG 16:0_18:1_18:1] (ion (formula + adduct): [C55H102O6+NH4] 1+)	322.4	322	322.45 ± 0.21
CCCCC/C=C\C/C=C\CCCCCCCC(=O)OC[C@@H](COC(=O)CCCCCCCCCCCCCCC)OC(=O)CCCCCCC/C=C\CCCCCCCC [TG 16:0_18:1_18:2] (ion (formula + adduct): [C55H100O6+NH4] 1+)	314.1		319.7
CCCCCCCC/C=C\CCCCCCCC(=O)O[C@@H](COC(=O)CCCCCCC/C=C\CCCCCCCCC)COC(=O)CCCCCCCCCCCCCCC [TG 16:0_18:1_19:1] (ion (formula + adduct): [C56H104O6+NH4] 1+)		325.5	
CCCCCCCC/C=C\CCCCCCCC(=O)O[C@H](COC(=O)CCCCCCCCCCCCCCC)COC(=O)CCCCCCCCCCCCCCCCCCC [TG 16:0_18:1_20:0] (ion (formula + adduct): [C57H108O6+NH4] 1+)	330.6		
CCCCCCCC/C=C\CCCCCCCCCC(=O)OC[C@@H](COC(=O)CCCCCCCCCCCCCCC)OC(=O)CCCCCCC/C=C\CCCCCCCC [TG 16:0_18:1_20:1] (ion (formula + adduct): [C57H106O6+NH4] 1+)		328.4	
CCCCC/C=C\C/C=C\C/C=C\C/C=C\CCCC(=O)OC[C@@H](COC(=O)CCCCCCCCCCCCCCC)OC(=O)CCCCCCC/C=C\CCCCCCCC [TG 16:0_18:1_20:4] (ion (formula + adduct): [C57H100O6+NH4] 1+)		324.5	324.2
CCCCCCCC/C=C\CCCCCCCC(=O)O[C@H](COC(=O)CCCCCCCCCCCCCCC)COC(=O)CCCCCCCCCCCCCCCCCCCC [TG 16:0_18:1_21:0] (ion (formula + adduct): [C58H110O6+NH4] 1+)	333		333.1
CCCCCCCC/C=C\CCCCCCCC(=O)O[C@H](COC(=O)CCCCCCCCCCCCCCC)COC(=O)CCCCCCCCCCCCCCCCCCCCC [TG 16:0_18:1_22:0] (ion (formula + adduct): [C59H112O6+NH4] 1+)	336.3	335.9	
CCCCCCCC/C=C\CCCCCCCCCCCC(=O)OC[C@@H](COC(=O)CCCCCCCCCCCCCCC)OC(=O)CCCCCCC/C=C\CCCCCCCC [TG 16:0_18:1_22:1] (ion (formula + adduct): [C59H110O6+NH4] 1+)	334.2		
CCCCC/C=C\C/C=C\C/C=C\C/C=C\CCCCCC(=O)OC[C@@H](COC(=O)CCCCCCCCCCCCCCC)OC(=O)CCCCCCC/C=C\CCCCCCCC [TG 16:0_18:1_22:4] (ion (formula + adduct): [C59H104O6+NH4] 1+)			329.9
CC/C=C\C/C=C\C/C=C\C/C=C\C/C=C\CCCCCC(=O)OC[C@@H](COC(=O)CCCCCCCCCCCCCCC)OC(=O)CCCCCCC/C=C\CCCCCCCC [TG 16:0_18:1_22:5] (ion (formula + adduct): [C59H102O6+NH4] 1+)		328.5	
CC/C=C\C/C=C\C/C=C\CCCCCCCC(=O)OC[C@@H](COC(=O)CCCCCCCCCCCCCCC)OC(=O)CCCCCCC/C=C\C/C=C\CCCCC [TG 16:0_18:2_18:3] (ion (formula + adduct): [C55H96O6+NH4] 1+)			315.8
CCCCC/C=C\C/C=C\C/C=C\CCCCCCC(=O)OC[C@@H](COC(=O)CCCCCCCCCCCCCCC)OC(=O)CCCCCCC/C=C\C/C=C\CCCCC [TG 16:0_18:2_20:3] (ion (formula + adduct): [C57H100O6+NH4] 1+)	322.3		
CCCCC/C=C\C/C=C\C/C=C\C/C=C\CCCC(=O)OC[C@@H](COC(=O)CCCCCCCCCCCCCCC)OC(=O)CCCCCCC/C=C\C/C=C\CCCCC [TG 16:0_18:2_20:4] (ion (formula + adduct): [C57H98O6+NH4] 1+)			321.2
CC/C=C\C/C=C\C/C=C\C/C=C\C/C=C\CCCC(=O)OC[C@@H](COC(=O)CCCCCCCCCCCCCCC)OC(=O)CCCCCCC/C=C\C/C=C\CCCCC [TG 16:0_18:2_20:5] (ion (formula + adduct): [C57H96O6+NH4] 1+)	318.1		319.9
